Source: article PMC5368959, “Uricosuric targets of tranilast” (Pharmacology Research & Perspectives, 2017)
Several values for one entry are separate records, joined by “and”; a condition that tells them apart may be missing. Equal entries are not always repeated. Where two headings read alike, the source gives them in different places.

Columns and labels:
Assay type in all cases: cell-based
[1] = target: T1, URAT1 (Homo sapiens, UniProt Q96S37); test: [14C]-urate uptake by URAT1-expressing Xenopus oocytes; settings: for IC50: 40 μmol/L urate
T1 sequence (Q96S37 1-553): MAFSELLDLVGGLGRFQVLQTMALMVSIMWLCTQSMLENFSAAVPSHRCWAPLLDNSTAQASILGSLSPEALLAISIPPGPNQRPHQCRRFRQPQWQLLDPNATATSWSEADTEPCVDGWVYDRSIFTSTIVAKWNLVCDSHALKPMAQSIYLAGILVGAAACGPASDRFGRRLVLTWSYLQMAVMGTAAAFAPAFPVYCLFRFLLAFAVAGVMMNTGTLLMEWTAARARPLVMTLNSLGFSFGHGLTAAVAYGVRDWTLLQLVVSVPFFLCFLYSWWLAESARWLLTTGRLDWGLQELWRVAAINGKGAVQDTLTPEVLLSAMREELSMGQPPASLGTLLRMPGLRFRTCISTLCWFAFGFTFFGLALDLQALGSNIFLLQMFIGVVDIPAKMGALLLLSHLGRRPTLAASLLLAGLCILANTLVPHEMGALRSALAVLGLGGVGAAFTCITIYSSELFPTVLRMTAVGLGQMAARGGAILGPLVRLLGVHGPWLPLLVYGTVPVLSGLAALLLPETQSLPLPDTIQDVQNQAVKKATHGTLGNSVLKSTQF
Text: (§1) For uptake experiments, oocytes were washed four times with ND96 medium (pH 7.4) without pyruvate and gentamycin.

[2] = target: T2, OAT4 (Homo sapiens, UniProt Q9NSA0); test: [14C]-urate uptake by OAT4-expressing Xenopus oocytes; settings: for Inhibition of OAT4-mediated urate uptake: drug 100 μmol/L
T2 sequence (Q9NSA0 1-550): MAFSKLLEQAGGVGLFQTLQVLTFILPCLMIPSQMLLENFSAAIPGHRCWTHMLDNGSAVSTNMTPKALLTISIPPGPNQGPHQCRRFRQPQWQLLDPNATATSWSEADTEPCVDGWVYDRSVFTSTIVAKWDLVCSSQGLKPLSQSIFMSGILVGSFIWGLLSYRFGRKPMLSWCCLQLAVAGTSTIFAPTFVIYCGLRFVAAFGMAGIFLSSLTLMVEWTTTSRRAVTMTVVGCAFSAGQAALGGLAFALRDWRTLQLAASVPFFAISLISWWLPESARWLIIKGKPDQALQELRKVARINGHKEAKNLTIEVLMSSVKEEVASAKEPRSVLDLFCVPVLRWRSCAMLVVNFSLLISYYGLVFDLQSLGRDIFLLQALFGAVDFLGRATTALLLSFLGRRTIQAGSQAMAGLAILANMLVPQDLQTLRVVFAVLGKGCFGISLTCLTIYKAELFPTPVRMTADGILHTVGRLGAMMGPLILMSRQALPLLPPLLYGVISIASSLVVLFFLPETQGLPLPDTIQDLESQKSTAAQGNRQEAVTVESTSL
Experimental: as §1
(A) The uptake of [^14C]‐urate by OAT4‐expressing oocytes was performed in ND96 medium (pH 7.4) at ~25°C for 1 h. Na^+‐dependence was examined by replacing extracellular NaCl by KCl. […] (B) The inhibition of [^14C]‐urate uptake by OAT4 was examined in the presence of extracellular organic anions (for cis‐inhibition) or uricosuric drugs at the indicated concentrations. […] Data are mean ± S.E. with n = 12–15.

[3] = target: OAT10 (Homo sapiens, UniProt Q9Y226); test: [14C]-urate uptake by OAT10-expressing Xenopus oocytes; settings: for Inhibition of OAT10-mediated urate uptake: drug 100 μmol/L, PZA-preloaded oocytes
OAT10, sequence (Q9Y226 whole entry): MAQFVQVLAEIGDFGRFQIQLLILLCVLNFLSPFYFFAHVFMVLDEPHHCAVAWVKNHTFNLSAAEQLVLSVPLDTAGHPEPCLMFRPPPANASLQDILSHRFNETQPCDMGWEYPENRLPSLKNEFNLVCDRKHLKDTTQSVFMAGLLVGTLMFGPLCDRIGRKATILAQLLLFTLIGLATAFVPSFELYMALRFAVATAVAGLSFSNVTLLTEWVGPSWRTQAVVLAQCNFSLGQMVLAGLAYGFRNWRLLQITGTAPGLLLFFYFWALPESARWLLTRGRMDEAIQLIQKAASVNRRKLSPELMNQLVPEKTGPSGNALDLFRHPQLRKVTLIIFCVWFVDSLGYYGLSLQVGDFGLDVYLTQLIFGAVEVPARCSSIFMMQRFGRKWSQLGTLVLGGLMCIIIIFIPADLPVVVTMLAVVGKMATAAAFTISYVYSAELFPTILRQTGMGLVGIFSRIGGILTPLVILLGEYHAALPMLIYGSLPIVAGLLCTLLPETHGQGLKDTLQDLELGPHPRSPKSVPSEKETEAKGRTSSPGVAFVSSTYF
Text: as §1
(A) Time course of [^14C]‐urate uptake by control and […] oocytes. […] Inset, western blot analysis of OAT10 protein expressed in oocytes. […] (C) [^14C]‐urate transport properties of OAT10: voltage sensitivity and Na+‐dependence was examined by replacing extracellular NaCl by KCl or LiCl. Existence of urate/Cl^− exchange mechanism or Cl^− dependence or cis‐inhibitory effects of extracellular Cl^− on was verified by [^14C]‐urate uptake via OAT10 in the absence of extracellular Cl^− ion (0 Cl^−). In 0 Cl^− bath, NaCl was replaced by Na‐gluconate (Na‐Gluc), KCl by K‐gluconate (K‐Gluc), MgCl2 by Mg‐gluconate, and CaCl2 by Ca‐gluconate. […] Data are mean ± S.E. with n = 12–15.

[4] = target: T3, OAT3 (Mus musculus, UniProt O88909); test: [14C]-urate uptake by OAT3-expressing Xenopus oocytes
T3 sequence (O88909 1-537): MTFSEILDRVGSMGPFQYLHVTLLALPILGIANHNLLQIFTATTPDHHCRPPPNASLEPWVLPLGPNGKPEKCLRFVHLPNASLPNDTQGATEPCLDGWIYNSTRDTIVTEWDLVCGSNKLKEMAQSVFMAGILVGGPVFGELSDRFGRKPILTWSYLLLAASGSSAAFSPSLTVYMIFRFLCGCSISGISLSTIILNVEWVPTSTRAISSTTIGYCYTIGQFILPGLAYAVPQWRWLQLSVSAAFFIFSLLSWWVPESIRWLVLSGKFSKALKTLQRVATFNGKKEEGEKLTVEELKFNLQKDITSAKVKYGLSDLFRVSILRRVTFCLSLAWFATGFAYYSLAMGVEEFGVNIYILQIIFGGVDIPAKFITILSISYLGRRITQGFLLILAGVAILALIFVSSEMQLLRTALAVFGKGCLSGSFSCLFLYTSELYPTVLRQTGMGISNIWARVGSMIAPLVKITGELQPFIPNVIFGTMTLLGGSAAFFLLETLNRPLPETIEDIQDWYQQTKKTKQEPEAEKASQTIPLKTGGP
Experimental: as §1
The uptake of [^14C]‐urate (40 μmol/L) was performed in ND96 medium (pH 7.4) at ~25°C for 1 h.

Structure (SMILES)	Inhibition of URAT1-mediated [14C]-urate/PZA or /nicotinate exchange [1]	Reversibility of URAT1 inhibition [1]	URAT1 urate transport inhibition after washing and removal of inhibitor [1]	Inhibition of OAT4-mediated urate uptake [2]	IC50 [3]	Inhibition of OAT10-mediated urate uptake [3]	Inhibition of OAT3-mediated urate uptake ([4]; drug 100 μmol/L)	inhibition at 1000 µM ([2]; read-out: Inhibition of OAT4-mediated urate uptake)	inhibition at 1000 µM ([3]; read-out: Inhibition of OAT10 urate transport activity)	Inhibition of OAT3-mediated urate uptake ([4]; drug 1.0 mmol/L)	Vmax of URAT1-mediated urate uptake [1]	mode of inhibition of URAT1-mediated urate transport [1]	Ki ([1]; Eadie-Hofstee analysis, read-out: inhibition constant (Ki) for URAT1-mediated urate uptake)	IC50 ([1]; IC50, URAT1-mediated [14C]-urate/PZA or [14C]-urate/nicotinate exchange, oocytes preloaded with nicotinate (Fig. 1E), 1 h)	IC50 ([1]; uptake in the absence of PZA or nicotinate preloading, data not shown, read-out: IC50, basal URAT1-mediated [14C]-urate uptake)	IC50 ([2]; data not shown)	IC50 ([3]; data not shown, read-out: IC50, [14C]-urate uptake by OAT10)	IC50 ([4]; data not shown, read-out: IC50, OAT3-mediated urate uptake)	Inhibition of OAT3-mediated urate uptake ([4]; drug 50 μmol/L)
CCc1oc2ccccc2c1C(=O)c1cc(Br)c(O)c(Br)c1 [benzbromarone]	efficiently inhibited	not reversible	substantially inhibited	very efficiently inhibited	~20 µM	very efficiently inhibited	effectively inhibited	–	–	–	–	–	–	–	–	–	–	–	–
CCCN(CCC)S(=O)(=O)c1ccc(C(=O)O)cc1 [probenecid]	efficiently inhibited	not reversible	–	–	–	–	–	80%	~65%	effectively inhibited	–	–	–	–	–	–	–	–	–
COc1ccc(C=CC(=O)Nc2ccccc2C(=O)O)cc1OC [tranilast, N‐(3,4‐dimethoxycinnamoyl) anthranilic acid]	–	–	almost no inhibition	very efficiently inhibited	–	very efficiently inhibited	–	–	–	–	120.1 pmoles/oocyte/h and 63.5 pmoles/oocyte/h	noncompetitive inhibition (mixed)	21.3 ± 2.2 µM	21 µM and ~21 µM	~20 µM	~22 µM	~31 µM	~15 µM	effectively inhibited
